Results on three compounds are retold here after US20120309734A1, “COMBRETASTATIN DERIVATIVES AND USES THEREFOR” (priority 2009, published 2012).

A value given as a limit tells only on which side of the number the result lay.

Data set [1] in a line: Stability by HPLC at three pH values. The format is physicochemical. Conditions: for half-life: all pH values (4, 7.4, 9), HPLC; for stability at varying pH: pH 4, 7.4, 9, HPLC. How it is done:
The stability of β-lactam compounds 4, 8 and 12 was assessed by HPLC at three different pH values. […] The half-lives of 8 and 12 were both greater than 24 hours at all pH values. The stability of three ester prodrug derivatives of 4, i.e. 29, 30 and 31, was also assessed (FIG. 6).

The next data set concerns PC-3. Description: NCI60 cell line screen. Conditions: Homo sapiens.
The next data set concerns MCF-7. Description: NCI60 cell line screen. Conditions: Homo sapiens, MCF7.
In the next data set the test system is U251. Description: NCI60 cell line screen. The note with it: Homo sapiens, U-251.
The next data set has as its system HOP-62. The data set is described as follows: NCI60 cell line screen. The note with it: Homo sapiens.
The next data set deals with CCRF-CEM. The data set is described as follows: NCI60 cell line screen. The note with it: Homo sapiens.
The test system of a further data set is HCT-15. The data set is described as follows: NCI60 cell line screen. Conditions: Homo sapiens.
Another data set has as its system HCT-116. The data set is described as follows: NCI60 cell line screen. Conditions: Homo sapiens.
The subject of the next data set is HL-60(TB). Description: NCI60 cell line screen. Conditions: Homo sapiens.
The next data set concerns OVCAR-5. The data set is described as follows: NCI60 cell line screen. The note with it: Homo sapiens.
Another data set has as its system CAKI-1. Description: NCI60 cell line screen. The note with it: Homo sapiens.
The next data set concerns A549/ATCC. Description: NCI60 cell line screen. Conditions: Homo sapiens.
The test system of data set [2] is MCF-7 breast cancer cell line. Description: Antiproliferation study, MTT cell viability assay. The class given is cell-based. The note with it: Homo sapiens, MCF7, 72 h, antiproliferative activity, MTT, 72 h; read-out: IC50 (μM) MCF-7 cell line. The gist of the method:
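Cells seeded at 2.5×10^4 cells/ml and grown 24 h at 37 °C before compound treatment; vehicle 1% v/v ethanol. MTT at 1 mg/mL final for 2 h at 37 °C, then DMSO solubilisation and absorbance read. Viability expressed as % of untreated control, in triplicate, with compounds tested as free bases.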

The test system of the next data set is NCI-H552. The data set is described as follows: NCI60 cell line screen.
The test system of a further data set is KM12. Description: NCI60 cell line screen. The note with it: Homo sapiens.
The subject of a further data set is NCI-H226. Description: NCI60 cell line screen. Conditions: Homo sapiens.
The test system of a further data set is EKVX. The data set is described as follows: NCI60 cell line screen. The note with it: Homo sapiens.
Another data set concerns K-562. Description: NCI60 cell line screen. Conditions: Homo sapiens, K562.
The test system of data set [3] is primary endothelial cell (HUVEC). The data set is described as follows: Endothelial cell proliferation, AlamarBlue. The class given is cell-based. The note with it: Homo sapiens, 72 h, read-out: IC50, proliferation of HUVECs. Here is the method:
A range of concentrations of cis β-lactam 4, were tested on primary endothelial cell (HUVEC) proliferation. HUVEC cells (20,000 cells/well) were seeded onto 96-well plates for 24 h and treated in triplicate with vehicle alone (1% (v/v) ethanol) or a range of concentrations of compound 4 for 72 h. The cells were then incubated in 10% (v/v) AlamarBlue and its reduction to a fluorescent state measured at excitation 544 nm and emission 590 nm using a multi-well fluorimeter. The results were expressed as the percentage cell proliferation relative to vehicle-treated control cells (100%). Values represent the mean±the S.E.M for three separate experiments. IC50 values were obtained using Prism GraphPad 4.
Pooled primary human umbilical vein endothelial cells (HUVECs) and their associated reagents were all obtained from Cascade Biologics, Invitrogen, Carlsbad, Calif., USA. HUVECs were maintained between passages 1-4 in Medium 200 supplemented with LSGS (low serum growth factor supplement) and utilised for experiments at passage 4.
In general terms: Resazurin is reduced to fluorescent resorufin, in cell work by metabolically active cells.

The test system of the next data set is HL-60-MDR(PGP). Description: Alamar Blue cell viability assay. The class given is cell-based, human.
The next data set deals with SNB-75. Description: NCI60 cell line screen. The format is cell-based. Conditions: Homo sapiens, CNS.

Broadly, the half-life is how long it takes for the measured level to halve. Low readings indicate fast loss, high ones slow loss. Usually GI50 stands for the concentration that inhibits growth by half.

Procedure for HL-60-MDR(PGP): Three drug resistant cell lines and respective parental cell lines were assessed. […] Western blot analysis confirmed the overexpression of p-glycoprotein and BCRP in respective cell lines.
Cells were exposed to multiple concentrations of the indicated compound for 72 h. Cell viability was assessed using the Alamar blue assay and respective IC50 values were calculated. The resistance factor (RF) was calculated by dividing the IC50 of the resistant cell line/IC50 of the parental cell line.
All cells were cultured in RPMI-1640 Glutamax medium supplemented with 10% FCS media, 100 units/ml penicillin and 100 μg/mIstreptomycin. Cells were maintained at 37° C. in 5% CO2 in a humidified incubator.
The reduction of Alamar Blue is proportional to the number of viable cells. Cells (200 μl) were plated in triplicate in a 96-well plates (K562, 100,000/ml; HL-60, 300,000/ml; A-2780 50,000/ml). A-2780 cells were plated 24 h prior to treatment. Suspension cells were plated in the log phase of growth and treated immediately. The cells were then treated with either medium alone, vehicle (1% ethanol v/v or 0.1% DMSO v/v) or with a range of concentrations of drug [0.001-10 μM]. After 72 h, Alamar Blue was added to each well (10% of final volume) and fluorescence was read using a 96-well fluorometer with excitation at 530 nm and emission of 590 nm. The blank solution consisted of medium and Alamar Blue and the blank solution was used to calibrate the spectrophotometer to zero absorbance. The relative cell viability (%) related to control wells and was calculated by [A]test/[A]control×100 where [A]test is the absorbance of the drug treated cells and [A]control the absorbance of the vehicle control treated cells. Dose response curves were plotted and IC50 values (concentration of drug resulting in 50% reduction in cell survival) were obtained using the commercial software package Prism (GraphPad Software, Inc., La Jolla, USA). Experiments were performed in triplicate on at least three separate occasions.

The compound `COc1ccc(C2C(c3cccs3)C(=O)N2c2cc(OC)c(OC)c(OC)c2)cc1` (centres unmarked) [Compound 12, 4-(4-Methoxyphenyl)-3-thiophen-2-yl-1-(3,4,5-trimethoxyphenyl)-azetidin-2-one] had a half-life in data set [1] of over 24 h. For the same compound, the “stability at varying pH” value in [1] is “least stable at acidic pH 4 and relatively stable at pH's 7.4 and 9”. For the same compound, the 50% growth inhibitory concentration (GI50) in the data set with PC-3 was under 10 nM; in the data set on MCF-7, under 10 nM; in the data set on U251 it was 37 nM; in the data set with HOP-62, 70 nM; in the data set with CCRF-CEM, under 10 nM; in the data set on HCT-15 it was 26 nM. The GI50 in the data set with HCT-116 was under 10 nM; in the data set with HL-60(TB), under 10 nM; with OVCAR-5, 51 nM; with CAKI-1 it was 16 nM; with A549/ATCC, 23 nM; with NCI-H552, under 10 nM. Further, the concentration for 50% growth inhibition (GI50) in the data set on KM12 is under 10 nM; in the data set with NCI-H226, under 10 nM; in the data set with EKVX, 34 nM. For the same compound, the IC50 in data set [2] worked out at 0.064 µM.

With `COc1ccc(C2C(c3ccccc3)C(=O)N2c2cc(OC)c(OC)c(OC)c2)cc1O` (centres unmarked) [Compound 4, 4-(3-Hydroxy-4-methoxyphenyl)-3-phenyl-1-(3,4,5-trimethoxyphenyl)-azetidin-2-one], the GI50 with PC-3 is under 10 nM; with MCF-7, under 10 nM; with K-562, under 10 nM; with U251, under 10 nM; in the data set with SNB-75, 47 nM; with CCRF-CEM, under 10 nM. Also, the GI50 in the data set with HCT-15 is under 10 nM; in the data set with HCT-116, under 10 nM; in the data set on HL-60(TB) it was under 10 nM; in the data set with OVCAR-5, 38 nM; in the data set on CAKI-1 it was under 10 nM; with A549/ATCC, under 10 nM. The GI50 with NCI-H552 is 5150 nM; in the data set on KM12, under 10 nM; in the data set on NCI-H226, under 10 nM; in the data set with EKVX, under 10 nM. Also, the IC50 in data set [3] came out at 4 nM; in the data set with HL-60-MDR(PGP) (Homo sapiens, HL60/MDR, HL-60-MDR(PGP), 72 h, Alamar blue, read-out: IC50), 18.2 nM; in [2] it was 0.0096 µM. Besides, the RF with HL-60-MDR(PGP) (IC50 HL-60-MDR(PGP) / IC50 HL-60 parental) turned out to be 1.03.

Compound `COc1ccc(C2C(c3ccccc3)C(=O)N2c2cc(OC)c(OC)c(OC)c2)cc1` (centres unmarked) [Compound 8, 4-(4-Methoxy-phenyl)-3-phenyl-1-(3,4,5-trimethoxy-phenyl)-azetidin-2-one] gave a half-life in data set [1] of over 24 h. In addition, the “stability at varying pH” value in [1] is “least stable at acidic pH 4 and relatively stable at pH's 7.4 and 9”. Besides, the GI50 was 35.1 nM in the data set on MCF-7; 29.1 nM in the data set on K-562; 95 nM in the data set on U251; 605 nM with HOP-62; 37.2 nM in the data set with CCRF-CEM; 170 nM in the data set on HCT-15. Moreover, the GI50 in the data set on HCT-116 came to 39.8 nM; in the data set on HL-60(TB), 16.2 nM; in the data set with OVCAR-5 it was 668 nM; with CAKI-1 it was 84.8 nM; in the data set on A549/ATCC, 238 nM; with NCI-H552 it was 96.6 nM. In addition, the concentration for 50% growth inhibition (GI50) with KM12 was found to be 42.7 nM; with NCI-H226, 263 nM; in the data set on EKVX, 352 nM. For the same compound, the IC50 in [2] amounted to 0.034 µM.
